The test system of one assay is Staphylococcus aureus. In words: Serial Dilution Test (Broth Titer Test), antibacterial, Staphylococcus aureus. Format: cell-based. The note with it: for MIC: Staphylococcus aureus, read-out: SDT, MIC. As for the experimental part:
(§1) Antibacterial and antifungal activity were evaluated by the Serial Dilution Test (Broth Titer Test) wherein a series of broths containing varying dilutions of a test compound and an organism are halved starting with 1:1,000. The values shown represent the maximum dilution in parts per million at which the compound under evaluation renders complete control of the organism. Pseudomonas aeruginosa (P), Staphylococcus aureus (S), and Escherichia coli (E) were the bacterial organisms employed in this test, and the fungi employed were Aspergillus niger (A) and Rhizopus stolonifer (R).
(§2) ^a In vitro serial dilution test (SDT), minimum inhibitory
(§3) concentrations (MIC) against E = E. coli, P = Ps. aeruginosa, S =
(§4) Staphylococcus aureus, A = A. niger, and R = Rhizopus stolonifer are give
(§5) in parts per million of a biocide.

The test system of assay [1] is Puccinia graminis f. sp. tritici. Nature of the assay: whole plant or invertebrate. It counts as in vivo, Puccinia graminis f. sp. tritici race 15B-2. The note with it: for Disease Control Level, WSR: 150 ppm, wheat seedlings.
The next assay concerns Erysiphe polygoni. In words: whole plant or invertebrate. Format: in vivo. To be noted: read-out: Disease Control Level, BPM.
For another assay, the system named is Piricularia oryzae. In words: whole plant or invertebrate. Format: in vivo. To be noted: for Disease Control Level, RB: 150 ppm.
The test system of a further assay is Helminthosporium teres. In words: whole plant or invertebrate. Format: in vivo. The note with it: Pyrenophora teres, in Hordeum vulgare, read-out: Disease Control Level, BH.
The subject of another assay is Plasmopora viticola. Nature of the assay: whole plant or invertebrate. Format: in vivo. The note with it: for pest or weed control at 38 ppm / pest or weed control at 75 ppm / pest or weed control at 300 ppm: read-out: Disease Control Level, GDM.
The next assay relates to Botrytis cinerea. In words: whole plant or invertebrate. The note with it: for Disease Control Level, BOT: 150 ppm; for pest or weed control at 38 ppm / pest or weed control at 75 ppm / pest or weed control at 300 ppm: Botrytis cinerea, read-out: Disease Control Level, BOT. Format: in vivo.
The next assay relates to Phytophthora infestans. In words: whole plant or invertebrate. Format: in vivo.
The next assay concerns E. coli. Nature of the assay: Serial Dilution Test (Broth Titer Test), antibacterial, E. coli. Format: cell-based, Escherichia coli. The note with it: for MIC: Escherichia coli, read-out: SDT, MIC. Here is the method: as §1, §2, §3, §4, §5
The next assay concerns Ps. aeruginosa. Nature of the assay: Serial Dilution Test (Broth Titer Test), antibacterial, Ps. aeruginosa. It counts as cell-based, Pseudomonas aeruginosa. The note with it: for MIC: Pseudomonas aeruginosa, read-out: SDT, MIC. As for the experimental part:
as §1, §2, §3, §4, §5

A further assay deals with A. niger. In words: Serial Dilution Test (Broth Titer Test), antifungal, A. niger. It counts as cell-based, Aspergillus niger. The note with it: in vitro serial dilution test; for MIC: Aspergillus niger, read-out: SDT, MIC. As for the experimental part: as §1, §2, §3, §4, §5
The next assay concerns Rhizopus stolonifer. Nature of the assay: Serial Dilution Test (Broth Titer Test), antifungal, Rhizopus stolonifer. Format: cell-based. The note with it: in vitro serial dilution test; R = Rhizopus stolonifer. As for the experimental part: as §1, §2, §3, §4, §5
[2] abbreviates: Puccinia graminis, read-out: Disease Control Level, WSR.
Where [3] appears, read: Pyricularia oryzae, read-out: Disease Control Level, RB.
Setting [4] is: Phytophthora infestans, in Solanum lycopersicum, read-out: Disease Control Level, TLB.

Values after ≈ are worked out from the molar mass of the structure shown. A value given as a limit tells only on which side of the number the result lay.

As to `CN(C)C(=S)Sc1cc(=O)n(Cc2ccccc2)s1` [Example 1, 2-Benzyl-5-(N,N-dimethylthiocarbamoyl)thio-4-isothiazolin-3-one], the MIC in the assay on Staphylococcus aureus was greater than 500 mg/L. For the same compound, the “Disease Control Level, WSR” value in assay [1] is “C/C”. Moreover, the pest or weed control at 38 ppm in assay [1] (setting [2]) is 50%; with Piricularia oryzae (setting [3]), 97 to 100%; with Helminthosporium teres, 50%; in the assay on Plasmopora viticola it was 50 to 69%; in the assay with Botrytis cinerea, 70 to 89%. The pest or weed control at 75 ppm in [1] (setting [2]) was 50%; with Piricularia oryzae (setting [3]), 97 to 100%; in the assay with Helminthosporium teres it was 50%; in the assay with Plasmopora viticola it was 70 to 89%; in the assay with Botrytis cinerea, 70 to 89%. The pest or weed control at 300 ppm in assay [1] (setting [2]) is 90 to 96%; in the assay with Erysiphe polygoni, 50%; in the assay with Helminthosporium teres it was 97 to 100%; in the assay on Plasmopora viticola, 90 to 96%; in the assay with Botrytis cinerea, 90 to 96%; in the assay on Phytophthora infestans (setting [4]) it was 50%. Moreover, the “Disease Control Level, RB” value with Piricularia oryzae was “A/E”. The pest or weed control at 150 ppm with Helminthosporium teres amounted to 50%. Further, in the assay on Plasmopora viticola (150 ppm), the “Disease Control Level, GDM” value is recorded as “C/C”. Further, the “Disease Control Level, BOT” value with Botrytis cinerea is recorded as “B/B”.

For `Cc1c(SC(=S)N(C)C)sn(-c2ccccc2)c1=O` [Example 2, 5-(N,N-Dimethylthiocarbamoyl)thio-4-methyl-2-phenyl-4-isothiazolin-3-one], the pest or weed control at 300 ppm in assay [1] (setting [2]) is 70 to 89%; in the assay with Erysiphe polygoni, 50%; with Helminthosporium teres, 50%; in the assay on Plasmopora viticola, 50%; with Botrytis cinerea, 90 to 96%; in the assay on Phytophthora infestans (setting [4]), 50%. Also, the MIC in the assay with E. coli is 500 mg/L (≈ 1610 µM); in the assay with Ps. aeruginosa it was greater than 500 mg/L; in the assay with A. niger, 500 mg/L (≈ 1610 µM). Also, the “Disease Control Level, RB” value with Piricularia oryzae was “A/E”. Also, the pest or weed control at 38 ppm with Piricularia oryzae (setting [3]) was 90 to 96%; in the assay on Botrytis cinerea, 70 to 89%. Moreover, the pest or weed control at 75 ppm in the assay on Piricularia oryzae (setting [3]) and with Botrytis cinerea was 90 to 96% throughout. Moreover, in the assay with Botrytis cinerea, the “Disease Control Level, BOT” value is “B/C”.

Take `CN(C)C(=S)Sc1sn(CCc2ccccc2)c(=O)c1Cl` [Example 3, 4-Chloro-5-(N,N-dimethylthiocarbamoyl)thio-2-phenethyl-4-isothiazolin-3-one]: the MIC in the assay with Staphylococcus aureus was greater than 500 mg/L. Besides, the pest or weed control at 300 ppm is 70 to 89% in assay [1] (setting [2]); 50% in the assay on Erysiphe polygoni; 50% in the assay with Piricularia oryzae (setting [3]); 50% in the assay on Helminthosporium teres; 50% in the assay with Plasmopora viticola; 50% with Botrytis cinerea. Moreover, the pest or weed control at 300 ppm with Phytophthora infestans (setting [4]) came to 50%.

Take `CN(C)C(=S)Sc1cc(=O)n(CCc2ccccc2)s1` [Example 4]: the MIC in the assay with Staphylococcus aureus is greater than 500 mg/L. Also, the “Disease Control Level, WSR” value in assay [1] was “E/E”. Also, the pest or weed control at 300 ppm in [1] (setting [2]) is 97 to 100%; in the assay with Erysiphe polygoni, 50%; in the assay on Helminthosporium teres, 50%; with Plasmopora viticola it was 90 to 96%; in the assay on Botrytis cinerea it was 90 to 96%; in the assay with Phytophthora infestans (setting [4]), 50%. Further, the values for the pest or weed control at 38 ppm in the assay on Piricularia oryzae (setting [3]), in the assay on Plasmopora viticola and in the assay on Botrytis cinerea were 50%, 90 to 96% and 90 to 96%, respectively. For the same compound, the pest or weed control at 75 ppm in the assay on Piricularia oryzae (setting [3]) is 50%; with Plasmopora viticola it was 97 to 100%; in the assay on Botrytis cinerea it was 90 to 96%. The pest or weed control at 150 ppm in the assay with Piricularia oryzae (setting [3]) was in the range of 97 to 100%. The “Disease Control Level, GDM” value in the assay on Plasmopora viticola (150 ppm) is “A/A”. The “Disease Control Level, BOT” value in the assay with Botrytis cinerea is recorded as “A/C”.

As to `CN(C)C(=S)Sc1cc(=O)n(C)s1` [Example 5], the “Disease Control Level, WSR” value in assay [1] was “C/E”. The pest or weed control at 75 ppm was 50% in assay [1] (setting [2]); 97 to 100% with Piricularia oryzae (setting [3]); 50% in the assay on Helminthosporium teres; 97 to 100% in the assay with Plasmopora viticola; 97 to 100% in the assay on Botrytis cinerea. Also, the pest or weed control at 300 ppm is 90 to 96% in [1] (setting [2]); 50% with Erysiphe polygoni; 97 to 100% in the assay with Helminthosporium teres; 90 to 96% in the assay on Plasmopora viticola; 90 to 96% with Botrytis cinerea; 50% in the assay with Phytophthora infestans (setting [4]). In addition, the MIC was 500 mg/L (≈ 2130 µM) with E. coli, greater than 500 mg/L in the assay with Ps. aeruginosa and 125 mg/L (≈ 533 µM) in the assay on A. niger. The “Disease Control Level, RB” value with Piricularia oryzae is on record as “A/E”. The pest or weed control at 19 ppm is 97 to 100% in the assay with Piricularia oryzae (setting [3]) and 50% in the assay on Helminthosporium teres (19 ppm). Besides, the pest or weed control at 38 ppm was 97 to 100% with Piricularia oryzae (setting [3]), 50% in the assay on Helminthosporium teres, 97 to 100% with Plasmopora viticola and 90 to 96% in the assay on Botrytis cinerea. In addition, in the assay with Helminthosporium teres, the pest or weed control at 150 ppm came out at 50%. Besides, the “Disease Control Level, GDM” value in the assay on Plasmopora viticola (19 ppm) is recorded as “C/E”; in the assay with Plasmopora viticola (150 ppm), “A/A”. The “Disease Control Level, BOT” value in the assay with Botrytis cinerea is “A/C”.

`CCCCCCCCn1sc(SC(=S)N(C)C)cc1=O` [Example 6]: the pest or weed control at 300 ppm is 97 to 100% in assay [1] (setting [2]); 50% with Erysiphe polygoni; 50% with Helminthosporium teres; 50% in the assay with Plasmopora viticola; 50% in the assay with Botrytis cinerea.

Consider `Cc1c(SC(=S)N(C)C)sn(CCc2ccccc2)c1=O` [Example 7], for which, in the assay with Staphylococcus aureus, the MIC was greater than 500 mg/L. Moreover, the pest or weed control at 38 ppm in assay [1] (setting [2]) was 50%; in the assay on Piricularia oryzae (setting [3]) it was 90 to 96%. The pest or weed control at 75 ppm in [1] (setting [2]) is 50%; in the assay on Piricularia oryzae (setting [3]) it was 90 to 96%. The pest or weed control at 150 ppm in [1] (setting [2]) was found to be 50%. Moreover, the pest or weed control at 300 ppm in assay [1] (setting [2]) was 97 to 100%; with Erysiphe polygoni it was 50%; with Helminthosporium teres, 50%; with Plasmopora viticola, 50%; with Botrytis cinerea it was 50%; with Phytophthora infestans (setting [4]), 50%. For the same compound, the “Disease Control Level, RB” value in the assay on Piricularia oryzae is “B/E”.

As for `Cc1c(SC(=S)N(C)C)sn(-c2ccc(Cl)cc2Cl)c1=O` [Example 10], the “SDT, MIC” value in the assay with Staphylococcus aureus (in vitro serial dilution test, S = Staphylococcus aureus) is 500 PPM; in the assay on E. coli (in vitro serial dilution test, E = E. coli), 500 PPM; with Rhizopus stolonifer it was 250 PPM; in the assay on Ps. aeruginosa (in vitro serial dilution test, P = Ps. aeruginosa), 500 PPM; in the assay on A. niger, 500 PPM.

In the case of `O=c1cc(SC(=S)N(Cc2ccccc2)Cc2ccccc2)sn1CCc1ccccc1` [Example 12, 5-(N,N-Dibenzylthiocarbamoyl)thio-2-phenethyl-4-isothiazolin-3-one], the pest or weed control at 300 ppm (in assay [1] (setting [2]); in the assay on Erysiphe polygoni; in the assay on Piricularia oryzae (setting [3]); in the assay with Helminthosporium teres; in the assay with Plasmopora viticola; with Botrytis cinerea) was 50% in each case. Moreover, in the assay with Phytophthora infestans (setting [4]), the pest or weed control at 300 ppm stood at 50%.

`Cn1sc(SC(=S)N2CCCC2)cc1=O` [Example 13, 2-Methyl-5-[N,N-tetramethylenethiocarbamoyl]thio-4-isothiazolin-3-one]: in the assay with Staphylococcus aureus, the MIC is greater than 500 mg/L. Also, the “Disease Control Level, WSR” value in assay [1] was “C/E”. Besides, the pest or weed control at 38 ppm was 70 to 89% in [1] (setting [2]); 90 to 96% with Piricularia oryzae (setting [3]); 97 to 100% with Plasmopora viticola; 70 to 89% with Botrytis cinerea; 50% in the assay with Phytophthora infestans (setting [4]). For the same compound, the pest or weed control at 75 ppm in [1] (setting [2]) lay in the range of 70 to 89%; in the assay on Piricularia oryzae (setting [3]) it was 90 to 96%; in the assay with Plasmopora viticola, 97 to 100%; in the assay with Botrytis cinerea, 70 to 89%; in the assay with Phytophthora infestans (setting [4]) it was 90 to 96%. Besides, the pest or weed control at 300 ppm in [1] (setting [2]) is 90 to 96%; in the assay with Erysiphe polygoni it was 50%; with Piricularia oryzae (setting [3]), 90 to 96%; with Helminthosporium teres, 50%; in the assay with Plasmopora viticola, 97 to 100%; in the assay on Botrytis cinerea, 97 to 100%. Moreover, the pest or weed control at 300 ppm with Phytophthora infestans (setting [4]) was in the range of 90 to 96%. In the assay with Piricularia oryzae, the “Disease Control Level, RB” value was “A/E”. In the assay with Plasmopora viticola (150 ppm), the “Disease Control Level, GDM” value was “A/E”. The “Disease Control Level, BOT” value with Botrytis cinerea is recorded as “A/E”. Further, in the assay on Phytophthora infestans (150 ppm, tomato seedlings), the “Disease Control Level, TLB” value was “A/E”.

With `N#Cc1cc(=O)n(CCc2ccccc2)s1` [Example 15, 5-Cyano-2-phenethyl-4-isothiazolin-3-one], the MIC with Staphylococcus aureus is greater than 500 mg/L.

The values above are taken from patent US4310590A (priority 1979, dated 1982).
